Measurements as given in ChEMBL document CHEMBL2150937, “Elaiomycins D-F, antimicrobial and cytotoxic azoxides from Streptomyces sp. strain HKI0708” (J Nat Prod, 2012).
Converted amounts (≈) assume the structure as drawn.

system: Bacillus subtilis; assay: Antibacterial activity against Bacillus subtilis 6633 B1 assessed as zone of inhibition at 50 ug/disc after 24 hrs by agar diffusion assay; type: functional; conditions: 6633 B1, 24 h, read-out: IZ

Row | Compound | zone of inhibition at 50 µg/disc
1 | CCCCCCCC/[N+]([O-])=N/[C@@H](COC)C(N)=O [ELAIOMYCIN H] | 0 mm
2 | COC[C@H](/N=[N+](\[O-])CCCCCCC(C)=O)[C@H](C)O [ELAIOMYCIN G] | 0 mm

system: Escherichia coli; assay: Antibacterial activity against Escherichia coli 458 B4 assessed as zone of inhibition at 50 ug/disc after 24 hrs by agar diffusion assay; type: functional; conditions: 458 B4, 24 h, read-out: IZ

Row | Compound | zone of inhibition at 50 µg/disc
3 | CCCCCCCC/[N+]([O-])=N/[C@@H](COC)C(N)=O [ELAIOMYCIN H] | 0 mm
4 | COC[C@H](/N=[N+](\[O-])CCCCCCC(C)=O)[C@H](C)O [ELAIOMYCIN G] | 0 mm

system: HeLa; assay: Cytotoxicity against human HeLa cells; type: functional; conditions: not given

Row | Compound | CC50
5 | CCCCCCCC/[N+]([O-])=N/[C@@H](COC)C(N)=O [ELAIOMYCIN H] | 40.5 µg/mL (≈ 156 µM)
6 | COC[C@H](/N=[N+](\[O-])CCCCCCC(C)=O)[C@H](C)O [ELAIOMYCIN G] | > 50 µg/mL

system: Mycolicibacterium vaccae; assay: Antibacterial activity against Mycobacterium vaccae 10670 M4 assessed as zone of inhibition at 50 ug/disc after 24 hrs by agar diffusion assay; type: functional; conditions: 10670 M4, 24 h, read-out: IZ

Row | Compound | zone of inhibition at 50 µg/disc
7 | CCCCCCCC/[N+]([O-])=N/[C@@H](COC)C(N)=O [ELAIOMYCIN H] | 12 mm
8 | COC[C@H](/N=[N+](\[O-])CCCCCCC(C)=O)[C@H](C)O [ELAIOMYCIN G] | 11 mm

system: not listed separately; assay: Cytotoxicity against human PAXF 1657L cells by propidium iodide-based fluorescence assay; type: functional, cell-based; conditions: not given

Row | Compound | IC50
9 | CCCCCCCC/[N+]([O-])=N/[C@@H](COC)C(N)=O [ELAIOMYCIN H] | 5.42 µM

system: not listed separately; assay: Cytotoxicity against human GXF251L cells by propidium iodide-based fluorescence assay; type: functional, cell-based; conditions: GXF 251L

Row | Compound | IC50
10 | CCCCCCCC/[N+]([O-])=N/[C@@H](COC)C(N)=O [ELAIOMYCIN H] | 4.65 µM

system: not listed separately; assay: Cytotoxicity against human PXF 1752L cells by propidium iodide-based fluorescence assay; type: functional, cell-based; conditions: not given

Row | Compound | IC50
11 | CCCCCCCC/[N+]([O-])=N/[C@@H](COC)C(N)=O [ELAIOMYCIN H] | 5.99 µM

system: Aspergillus niger; assay: Antifungal activity against Aspergillus niger DSM 737 assessed as zone of inhibition at 50 ug/disc after 24 hrs by agar diffusion assay; type: functional; conditions: DSM 737, 24 h, read-out: IZ

Row | Compound | zone of inhibition at 50 µg/disc
12 | CCCCCCCC/[N+]([O-])=N/[C@@H](COC)C(N)=O [ELAIOMYCIN H] | 0 mm
13 | COC[C@H](/N=[N+](\[O-])CCCCCCC(C)=O)[C@H](C)O [ELAIOMYCIN G] | 0 mm

system: Aspergillus terreus; assay: Antifungal activity against amphotericin-resistant Aspergillus terreus DSM 826 assessed as zone of inhibition at 50 ug/disc after 24 hrs by agar diffusion assay; type: functional; conditions: DSM 826, 24 h, read-out: IZ

Row | Compound | zone of inhibition at 50 µg/disc
14 | CCCCCCCC/[N+]([O-])=N/[C@@H](COC)C(N)=O [ELAIOMYCIN H] | 15 mm
15 | COC[C@H](/N=[N+](\[O-])CCCCCCC(C)=O)[C@H](C)O [ELAIOMYCIN G] | 0 mm

system: not listed separately; assay: Cytotoxicity against human LXFA 629L cells by propidium iodide-based fluorescence assay; type: functional, cell-based; conditions: not given

Row | Compound | IC50
16 | CCCCCCCC/[N+]([O-])=N/[C@@H](COC)C(N)=O [ELAIOMYCIN H] | 1.2 µM

system: Enterococcus faecalis; assay: Antibacterial activity against vancomycin-resistant Enterococcus faecalis 1528 R10 assessed as zone of inhibition at 50 ug/disc after 24 hrs by agar diffusion assay; type: functional; conditions: 1528 R10, 24 h, read-out: IZ

Row | Compound | zone of inhibition at 50 µg/disc
17 | CCCCCCCC/[N+]([O-])=N/[C@@H](COC)C(N)=O [ELAIOMYCIN H] | 0 mm
18 | COC[C@H](/N=[N+](\[O-])CCCCCCC(C)=O)[C@H](C)O [ELAIOMYCIN G] | 0 mm

system: not listed separately; assay: Cytotoxicity against human MEXF 462NL cells by propidium iodide-based fluorescence assay; type: functional, cell-based; conditions: not given

Row | Compound | IC50
19 | CCCCCCCC/[N+]([O-])=N/[C@@H](COC)C(N)=O [ELAIOMYCIN H] | 3.95 µM

system: not listed separately; assay: Cytotoxicity against human CXF HT29 cells by propidium iodide-based fluorescence assay; type: functional, cell-based; conditions: HT-29

Row | Compound | IC50
20 | CCCCCCCC/[N+]([O-])=N/[C@@H](COC)C(N)=O [ELAIOMYCIN H] | 1.15 µM

system: HUVEC; assay: Antiproliferative activity against HUVEC; type: functional; conditions: Homo sapiens

Row | Compound | GI50
21 | CCCCCCCC/[N+]([O-])=N/[C@@H](COC)C(N)=O [ELAIOMYCIN H] | 38.2 µg/mL (≈ 147 µM)
22 | COC[C@H](/N=[N+](\[O-])CCCCCCC(C)=O)[C@H](C)O [ELAIOMYCIN G] | > 50 µg/mL

system: Pseudomonas aeruginosa; assay: Antibacterial activity against Pseudomonas aeruginosa K 799/61 B9 assessed as zone of inhibition at 50 ug/disc after 24 hrs by agar diffusion assay; type: functional; conditions: K 799/61 B9, 24 h, read-out: IZ

Row | Compound | zone of inhibition at 50 µg/disc
23 | CCCCCCCC/[N+]([O-])=N/[C@@H](COC)C(N)=O [ELAIOMYCIN H] | 0 mm
24 | COC[C@H](/N=[N+](\[O-])CCCCCCC(C)=O)[C@H](C)O [ELAIOMYCIN G] | 0 mm

system: not listed separately; assay: Cytotoxicity against human UXF 1138L cells by propidium iodide-based fluorescence assay; type: functional, cell-based; conditions: not given

Row | Compound | IC50
25 | CCCCCCCC/[N+]([O-])=N/[C@@H](COC)C(N)=O [ELAIOMYCIN H] | 8.88 µM

system: Sporobolomyces salmonicolor; assay: Antifungal activity against Sporidiobolus salmonicolor 549 H4 assessed as zone of inhibition at 50 ug/disc after 24 hrs by agar diffusion assay; type: functional; conditions: 549 H4, 24 h, read-out: IZ

Row | Compound | zone of inhibition at 50 µg/disc
26 | CCCCCCCC/[N+]([O-])=N/[C@@H](COC)C(N)=O [ELAIOMYCIN H] | 14 mm
27 | COC[C@H](/N=[N+](\[O-])CCCCCCC(C)=O)[C@H](C)O [ELAIOMYCIN G] | 13 mm

system: not listed separately; assay: Cytotoxicity against human MAXF 401NL cells by propidium iodide-based fluorescence assay; type: functional, cell-based; conditions: not given

Row | Compound | IC50
28 | CCCCCCCC/[N+]([O-])=N/[C@@H](COC)C(N)=O [ELAIOMYCIN H] | 3.74 µM

system: not listed separately; assay: Cytotoxicity against human RXF 486L cells by propidium iodide-based fluorescence assay; type: functional, cell-based; conditions: not given

Row | Compound | IC50
29 | CCCCCCCC/[N+]([O-])=N/[C@@H](COC)C(N)=O [ELAIOMYCIN H] | 9.49 µM

system: Penicillium chrysogenum; assay: Antifungal activity against Penicillium notatum JP36 P1 assessed as zone of inhibition at 50 ug/disc after 24 hrs by agar diffusion assay; type: functional; conditions: JP36 P1, 24 h, read-out: IZ

Row | Compound | zone of inhibition at 50 µg/disc
30 | CCCCCCCC/[N+]([O-])=N/[C@@H](COC)C(N)=O [ELAIOMYCIN H] | 0 mm
31 | COC[C@H](/N=[N+](\[O-])CCCCCCC(C)=O)[C@H](C)O [ELAIOMYCIN G] | 0 mm

system: Aspergillus fumigatus; assay: Antifungal activity against Aspergillus fumigatus ATCC 46645 assessed as zone of inhibition at 50 ug/disc after 24 hrs by agar diffusion assay; type: functional; conditions: ATCC 46645, 24 h, read-out: IZ

Row | Compound | zone of inhibition at 50 µg/disc
32 | CCCCCCCC/[N+]([O-])=N/[C@@H](COC)C(N)=O [ELAIOMYCIN H] | 13 mm
33 | COC[C@H](/N=[N+](\[O-])CCCCCCC(C)=O)[C@H](C)O [ELAIOMYCIN G] | 0 mm

system: Staphylococcus aureus; assay: Antibacterial activity against Staphylococcus aureus 511 B3 assessed as zone of inhibition at 50 ug/disc after 24 hrs by agar diffusion assay; type: functional; conditions: 511 B3, 24 h, read-out: IZ

Row | Compound | zone of inhibition at 50 µg/disc
34 | CCCCCCCC/[N+]([O-])=N/[C@@H](COC)C(N)=O [ELAIOMYCIN H] | 0 mm
35 | COC[C@H](/N=[N+](\[O-])CCCCCCC(C)=O)[C@H](C)O [ELAIOMYCIN G] | 0 mm

system: Candida albicans; assay: Antifungal activity against Candida albicans H8 assessed as zone of inhibition at 50 ug/disc after 24 hrs by agar diffusion assay; type: functional; conditions: H8, 24 h, read-out: IZ

Row | Compound | zone of inhibition at 50 µg/disc
36 | CCCCCCCC/[N+]([O-])=N/[C@@H](COC)C(N)=O [ELAIOMYCIN H] | 0 mm
37 | COC[C@H](/N=[N+](\[O-])CCCCCCC(C)=O)[C@H](C)O [ELAIOMYCIN G] | 0 mm

system: Staphylococcus aureus; assay: Antibacterial activity against methicillin-resistant Staphylococcus aureus 134/93 R9 assessed as zone of inhibition at 50 ug/disc after 24 hrs by agar diffusion assay; type: functional; conditions: 134/93 R9, 24 h, read-out: IZ

Row | Compound | zone of inhibition at 50 µg/disc
38 | CCCCCCCC/[N+]([O-])=N/[C@@H](COC)C(N)=O [ELAIOMYCIN H] | 0 mm
39 | COC[C@H](/N=[N+](\[O-])CCCCCCC(C)=O)[C@H](C)O [ELAIOMYCIN G] | 0 mm

system: not listed separately; assay: Cytotoxicity against human LXFL 529L cells by propidium iodide-based fluorescence assay; type: functional, cell-based; conditions: not given

Row | Compound | IC50
40 | CCCCCCCC/[N+]([O-])=N/[C@@H](COC)C(N)=O [ELAIOMYCIN H] | 8.57 µM

system: not listed separately; assay: Cytotoxicity against human PRXF 22Rv1 cells by propidium iodide-based fluorescence assay; type: functional, cell-based, CWR22R; conditions: not given

Row | Compound | IC50
41 | CCCCCCCC/[N+]([O-])=N/[C@@H](COC)C(N)=O [ELAIOMYCIN H] | 8.01 µM

system: not listed separately; assay: Cytotoxicity against human OVXF 899L cells by propidium iodide-based fluorescence assay; type: functional, cell-based; conditions: not given

Row | Compound | IC50
42 | CCCCCCCC/[N+]([O-])=N/[C@@H](COC)C(N)=O [ELAIOMYCIN H] | 9.84 µM

system: Pseudomonas aeruginosa; assay: Antibacterial activity against Pseudomonas aeruginosa SG 137 B7 assessed as zone of inhibition at 50 ug/disc after 24 hrs by agar diffusion assay; type: functional; conditions: SG 137 B7, 24 h, read-out: IZ

Row | Compound | zone of inhibition at 50 µg/disc
43 | CCCCCCCC/[N+]([O-])=N/[C@@H](COC)C(N)=O [ELAIOMYCIN H] | 0 mm
44 | COC[C@H](/N=[N+](\[O-])CCCCCCC(C)=O)[C@H](C)O [ELAIOMYCIN G] | 0 mm

system: K562; assay: Antiproliferative activity against human K562 cells; type: functional; conditions: not given

Row | Compound | GI50
45 | CCCCCCCC/[N+]([O-])=N/[C@@H](COC)C(N)=O [ELAIOMYCIN H] | 37.5 µg/mL (≈ 145 µM)
46 | COC[C@H](/N=[N+](\[O-])CCCCCCC(C)=O)[C@H](C)O [ELAIOMYCIN G] | > 50 µg/mL
